# Measurements as given in patent US20080207752A1, “Poly (epsilon-caprolactone-co-methylmethacrylate), method for preparing the same using super critical fluid, and method for preparing therapeutic agent for skin diseases such as acne, atopy and athlete's foot comprising the same” (priority 2007, published 2008).
# Test: Particle size measured using a particle size analyzer
# Assay type: physicochemical
# Details: before supercritical processing
# Experimental: At first, pretreated salicylic acid is 50-100 micron. In Examples, the size of salicylic acid particles prepared in following manners was measured using a particle size analyzer. Spherical nanoparticles of which the particle size is in the range of 50 to 300 nm can be obtained according to the presence of a poly(ε-caprolactone-co-methylmethacrylate) as a biodegradable polymer and operating conditions in the reactor.
# As shown in the following Table 1, the present Examples represent the operating conditions of the reactor in the step of formation of a spherical structure. The temperature and the pressure of the reactor must be each above 304.2 K and 73.8 bar. The operating parameters in the reactor are the temperature and the pressure in reactor, the amount of carbon dioxide as a supercritical fluid, and the amount of the mixed solution prepared in the preparation step. In Example 1, the mixed solution contains salicylic acid of 0.0016% by weight alone without a biodegradable polymer. In Example 2 to 8, the solution contains both of salicylic acid of 0.0016% by weight and the poly(ε-caprolactone-co-methylmethacrylate) of 0.0014% by weight as a biodegradable polymer. […] In Examples 1 and 3, the change was measured at 313K and 323K by adjusting the reactor temperature. […]
compound,measurement,value
O=C(O)c1ccccc1O [salicylic acid],particle size of pretreated salicylic acid,50-100 micron
